Data taken from PubChem BioAssay (NCI).
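Test compounds were applied to cells in 96-well plates for 48 hours at 5 doses. Here, GI50 denotes the concentration required for 50% inhibition of growth. TGI denotes the concentration required for complete inhibition of growth.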

What was measured:
Assay in all cases: growth of human tumour cells (NCI), 48 h
DU-145 prostate = test system: DU-145 prostate
RXF 393 renal = test system: RXF 393 renal
SNB-19 CNS = test system: SNB-19 CNS
HT29 colon = test system: HT29 colon
COLO 205 colon = test system: COLO 205 colon
MALME-3M melanoma = test system: MALME-3M melanoma
PC-3 prostate = test system: PC-3 prostate
NCI-H522 lung = test system: NCI-H522 lung
UACC-62 melanoma = test system: UACC-62 melanoma
MCF7 breast = test system: MCF7 breast
SK-MEL-2 melanoma = test system: SK-MEL-2 melanoma
SK-MEL-5 melanoma = test system: SK-MEL-5 melanoma
UO-31 renal = test system: UO-31 renal
HCC-2998 colon = test system: HCC-2998 colon
BT-549 breast = test system: BT-549 breast
786-0 renal = test system: 786-0 renal
HOP-92 NSCLC = test system: HOP-92 NSCLC
SF-295 CNS = test system: SF-295 CNS
NCI/ADR-RES ovarian = test system: NCI/ADR-RES ovarian
SNB-75 CNS = test system: SNB-75 CNS
IGROV1 ovarian = test system: IGROV1 ovarian
SK-OV-3 ovarian = test system: SK-OV-3 ovarian
SW-620 colon = test system: SW-620 colon
T-47D breast = test system: T-47D breast
HCT-116 colon = test system: HCT-116 colon
U251 CNS = test system: U251 CNS
SF-268 CNS = test system: SF-268 CNS
MDA-MB-435 = test system: MDA-MB-435
K-562 leukemia = test system: K-562 leukemia
MOLT-4 leukemia = test system: MOLT-4 leukemia
SN12C renal = test system: SN12C renal
HCT-15 colon = test system: HCT-15 colon
EKVX NSCLC = test system: EKVX NSCLC
OVCAR-5 ovarian = test system: OVCAR-5 ovarian
CCRF-CEM leukemia = test system: CCRF-CEM leukemia
M14 melanoma = test system: M14 melanoma
HOP-62 NSCLC = test system: HOP-62 NSCLC
HL-60(TB) leukemia = test system: HL-60(TB) leukemia
A549 NSCLC = test system: A549 NSCLC
SF-539 CNS = test system: SF-539 CNS
MDA-MB-231 breast = test system: MDA-MB-231 breast
SK-MEL-28 melanoma = test system: SK-MEL-28 melanoma
LOX IMVI melanoma = test system: LOX IMVI melanoma
OVCAR-4 ovarian = test system: OVCAR-4 ovarian
CAKI-1 renal = test system: CAKI-1 renal
RPMI-8226 leukemia = test system: RPMI-8226 leukemia
NCI-H23 lung = test system: NCI-H23 lung
KM12 colon = test system: KM12 colon
NCI-H226 lung = test system: NCI-H226 lung
UACC-257 melanoma = test system: UACC-257 melanoma
A498 renal = test system: A498 renal
NCI-H460 lung = test system: NCI-H460 lung
ACHN renal = test system: ACHN renal
HS 578T breast = test system: HS 578T breast
TK-10 renal = test system: TK-10 renal
OVCAR-8 ovarian = test system: OVCAR-8 ovarian

CS(=O)(=O)Nc1cc(-c2ccc3ncc(C#N)c(Nc4cccc(Cl)c4F)c3c2)cnc1Cl gave a GI50 (DU-145 prostate) of 289 nM, a TGI (DU-145 prostate) of 5460 nM and a GI50 (RXF 393 renal) of 76.8 nM. The TGI (RXF 393 renal) was 910 nM, the GI50 (SNB-19 CNS) was 288 nM and the TGI (SNB-19 CNS) was 3110 nM. It also gave a GI50 (HT29 colon) of 329 nM, a TGI (HT29 colon) of 2320 nM and a GI50 (COLO 205 colon) of 219 nM. It also gave a TGI (COLO 205 colon) of 955 nM, a GI50 (MALME-3M melanoma) of 68.3 nM and a TGI (MALME-3M melanoma) of 708 nM. It also gave a GI50 (PC-3 prostate) of 260 nM, a TGI (PC-3 prostate) of 3600 nM and a GI50 (NCI-H522 lung) of 255 nM. It also gave a TGI (NCI-H522 lung) of 2670 nM, a GI50 (UACC-62 melanoma) of 120 nM and a TGI (UACC-62 melanoma) of 1580 nM. The GI50 (MCF7 breast) was 64.3 nM, the TGI (MCF7 breast) was 4030 nM and the GI50 (SK-MEL-2 melanoma) was 29.2 nM. For the same compound, the TGI (SK-MEL-2 melanoma) was 177 nM, the GI50 (SK-MEL-5 melanoma) was 49.2 nM and the TGI (SK-MEL-5 melanoma) was 182 nM. The GI50 (UO-31 renal) was 205 nM, the TGI (UO-31 renal) was 2920 nM and the GI50 (HCC-2998 colon) was 507 nM. The TGI (HCC-2998 colon) was 2190 nM, the GI50 (BT-549 breast) was 56 nM and the TGI (BT-549 breast) was 959 nM. For the same compound, the GI50 (786-0 renal) was 366 nM, the TGI (786-0 renal) was 3550 nM and the GI50 (HOP-92 NSCLC) was 21.9 nM. The TGI (HOP-92 NSCLC) was 348 nM, the GI50 (SF-295 CNS) was 267 nM and the TGI (SF-295 CNS) was 3250 nM. For the same compound, the GI50 (NCI/ADR-RES ovarian) was 1250 nM, the TGI (NCI/ADR-RES ovarian) was 20700 nM and the GI50 (SNB-75 CNS) was < 13.1 nM. The TGI (SNB-75 CNS) was 395 nM, the GI50 (IGROV1 ovarian) was 101 nM and the TGI (IGROV1 ovarian) was 869 nM. For the same compound, the GI50 (SK-OV-3 ovarian) was 360 nM, the TGI (SK-OV-3 ovarian) was 2610 nM and the GI50 (SW-620 colon) was 73.3 nM. It also gave a TGI (SW-620 colon) of 1820 nM, a GI50 (T-47D breast) of 101 nM and a TGI (T-47D breast) of 4790 nM. The GI50 (HCT-116 colon) was 66.5 nM, the TGI (HCT-116 colon) was 1140 nM and the GI50 (U251 CNS) was 59.1 nM. It also gave a TGI (U251 CNS) of 1280 nM, a GI50 (SF-268 CNS) of 87.6 nM and a TGI (SF-268 CNS) of 1810 nM. The GI50 (MDA-MB-435) was 277 nM, the TGI (MDA-MB-435) was 3000 nM and the GI50 (K-562 leukemia) was 115 nM. The TGI (K-562 leukemia) was > 100000 nM, the GI50 (MOLT-4 leukemia) was 82.3 nM and the TGI (MOLT-4 leukemia) was 1580 nM. The GI50 (SN12C renal) was 152 nM, the TGI (SN12C renal) was 39400 nM and the GI50 (HCT-15 colon) was 111 nM. For the same compound, the TGI (HCT-15 colon) was 2870 nM, the GI50 (EKVX NSCLC) was 367 nM and the TGI (EKVX NSCLC) was 2630 nM. It also gave a GI50 (OVCAR-5 ovarian) of 749 nM, a TGI (OVCAR-5 ovarian) of 3920 nM and a GI50 (CCRF-CEM leukemia) of 90.6 nM. The TGI (CCRF-CEM leukemia) was > 39900 nM, the GI50 (M14 melanoma) was 308 nM and the TGI (M14 melanoma) was 3580 nM. The GI50 (HOP-62 NSCLC) was 198 nM, the TGI (HOP-62 NSCLC) was 7800 nM and the GI50 (HL-60(TB) leukemia) was 94 nM. For the same compound, the GI50 (A549 NSCLC) was 763 nM, the TGI (A549 NSCLC) was 2840 nM and the GI50 (SF-539 CNS) was 181 nM. It also gave a TGI (SF-539 CNS) of 2860 nM, a GI50 (MDA-MB-231 breast) of 333 nM and a TGI (MDA-MB-231 breast) of 2310 nM. It also gave a GI50 (SK-MEL-28 melanoma) of 189 nM, a TGI (SK-MEL-28 melanoma) of 2820 nM and a GI50 (LOX IMVI melanoma) of 107 nM. The TGI (LOX IMVI melanoma) was 641 nM, the GI50 (OVCAR-4 ovarian) was 495 nM and the TGI (OVCAR-4 ovarian) was 8090 nM. It also gave a GI50 (CAKI-1 renal) of 72.9 nM, a TGI (CAKI-1 renal) of 1590 nM and a GI50 (RPMI-8226 leukemia) of 94.7 nM. The TGI (RPMI-8226 leukemia) was 1170 nM, the GI50 (NCI-H23 lung) was 158 nM and the TGI (NCI-H23 lung) was 9360 nM. The GI50 (KM12 colon) was 324 nM, the TGI (KM12 colon) was 2090 nM and the GI50 (NCI-H226 lung) was 556 nM. It also gave a TGI (NCI-H226 lung) of 11100 nM, a GI50 (UACC-257 melanoma) of 400 nM and a TGI (UACC-257 melanoma) of 4540 nM. For the same compound, the GI50 (A498 renal) was 93.7 nM, the TGI (A498 renal) was 471 nM and the GI50 (NCI-H460 lung) was 391 nM. For the same compound, the TGI (NCI-H460 lung) was 10900 nM, the GI50 (ACHN renal) was 591 nM and the TGI (ACHN renal) was 21200 nM. The GI50 (HS 578T breast) was 56.7 nM, the TGI (HS 578T breast) was 537 nM and the GI50 (TK-10 renal) was 84.7 nM. It also gave a TGI (TK-10 renal) of 926 nM, a GI50 (OVCAR-8 ovarian) of 369 nM and a TGI (OVCAR-8 ovarian) of 4230 nM.
